# Laboratory results reported in patent publication US4038317A, “O-aminoalkyl oximes” (Seperic, priority 1975, dated 1977).
# Structures can show the parent of a compound that is named as a salt. Where two headings read alike, the source gives them in different places.
# Legend:
# action of isoprenaline = assay: inhibition of the action of isoprenaline on cardiac parameters in anesthetized dog; type: in vivo; conditions: Canis lupus familiaris, isoprenaline 0.02 micromole/kg
# Source text: This beta-blocking activity is again apparent in vivo. […] The following Table sets forth the dosages which inhibit 50% of the effect of 0.02 micromole/kg of isoprenaline on blood pressure, on cardiac rhythm and on the contractile strength of the heart.
# [1] = tested on: isolated trachea of guinea-pig; assay: isolated trachea of guinea-pig: antagonism of isoprenaline relaxation (PA2); type: cell-based; conditions: Cavia porcellus, agonist isoprenaline, PA2 = cologarithm of antagonist concentration requiring twice as much agonist
# Source text: on the isolated trachea of guinea-pigs: they inhibit the relaxation due to the action of this same isoprenaline.
# (§1) The following Table gives the PA2 determined with respect to this agonist (PA2 is the cologarithm of the antagonist concentration in the presence of which it is required to use twice as much agonist than in its absence to obtain the same effect; vide, on the subject; Calcul des PA2, Fiche Technique n° 16, J. Pharmacol. Paris, 1971, 2, 3, 373-380).
# [2] = tested on: isolated auricle of guinea-pig; assay: isolated auricle of guinea-pig: antagonism of isoprenaline (PA2); type: cell-based; conditions: Cavia porcellus, agonist isoprenaline, PA2 = cologarithm of antagonist concentration requiring twice as much agonist
# Source text: as §1
# [3] = blood pressure, read-out: 50% inhibiting dosage of the action of isoprenaline: Blood pressure
# [4] = cardiac rhythm, read-out: 50% inhibiting dosage of the action of isoprenaline: Rhythm
# [5] = contractile strength of the heart, read-out: 50% inhibiting dosage of the action of isoprenaline: Contractile strength
# [6] = read-out: PA2 Chronotropic effect (converted)
# [7] = read-out: PA2 Inotropic effect (converted)
compound,measurement,setting,value
"CC(C)(C)NCC(O)CON=C1c2ccccc2-c2ccccc21 (centres unmarked) [Example 1, 9-(3-tert.butylamino-2-hydroxypropoxy)imino-fluorene hydrochloride]",ED50,action of isoprenaline; [3],0.2 µmol/kg
same,ED50,action of isoprenaline; [4],3 µmol/kg
same,ED50,action of isoprenaline; [5],3 µmol/kg
"CC(=NOCC(O)CNC(C)(C)C)c1ccc(Cl)cc1 (centres unmarked) [Example 2, 4-chloro-acetophenone-0-(3-tert.butylamino-2-hydroxy-propyl)oxime hydrochloride]",ED50,action of isoprenaline; [3],1 µmol/kg
same,ED50,action of isoprenaline; [4],> 10 µmol/kg
same,ED50,action of isoprenaline; [5],10 µmol/kg
same,Kb,[1],245 nM
same,Kb,[2]; [6],26.3 nM
same,Kb,[2]; [7],37.2 nM
"CC(C)NCC(O)CON=Cc1ccc2ccccc2c1 (centres unmarked) [Example 3, 2-naphthalene carbaldehyde-0-(3-isopropylamino-2-hydroxy-propyl)-oxime hydrochloride]",Kb,[1],0.427 nM
same,Kb,[2]; [6],295 nM
same,Kb,[2]; [7],115 nM
"CC(C)(C)NCC(O)CON=C(c1ccccc1)c1ccccc1 (centres unmarked) [Example 4, benzophenone-0-(3-tert.butylamino-2-hydroxy-propyl)-oxime hydrochloride]",Kb,[1],11 nM
same,Kb,[2]; [6],162 nM
same,Kb,[2]; [7],427 nM
CC(C)NCC(O)CON=C1c2ccccc2-c2ccccc21 (centres unmarked) [Example 9],ED50,action of isoprenaline; [3],1.3 µmol/kg
same,ED50,action of isoprenaline; [4],> 17 µmol/kg
same,ED50,action of isoprenaline; [5],> 17 µmol/kg
same,Kb,[1],166 nM
same,Kb,[2]; [6],40.7 nM
same,Kb,[2]; [7],79.4 nM
CC(C)NCC(O)CON=c1c2ccccc2oc2ccccc12 (centres unmarked) [Example 10],Kb,[1],155 nM
same,Kb,[2]; [6],79.4 nM
same,Kb,[2]; [7],219 nM
CC(C)NCC(O)CON=C1CCc2ccccc21 (centres unmarked) [Example 12],Kb,[2]; [6],363 nM
same,Kb,[2]; [7],513 nM
CC(=NOCC(O)CNC(C)C)c1ccccc1 (centres unmarked) [Example 13],Kb,[1],28.8 nM
same,Kb,[2]; [6],229 nM
same,Kb,[2]; [7],186 nM
CC(C)NCC(O)CON=C(c1ccccc1)c1ccccc1 (centres unmarked) [Example 14],Kb,[1],32.4 nM
same,Kb,[2]; [6],162 nM
same,Kb,[2]; [7],191 nM
CC(C)NCC(O)CON=C1CCCc2ccccc21 (centres unmarked) [Example 15],Kb,[1],12.6 nM
same,Kb,[2]; [6],676 nM
same,Kb,[2]; [7],759 nM
CC(C)NCC(O)CON=Cc1ccccc1 (centres unmarked) [Example 16],Kb,[1],129 nM
same,Kb,[2]; [6],3020 nM
same,Kb,[2]; [7],2400 nM
CC(=NOCC(O)CNC(C)(C)C)c1ccc(C)cc1 (centres unmarked) [Example 17],Kb,[1],12.9 nM
same,Kb,[2]; [6],14.8 nM
same,Kb,[2]; [7],13.8 nM
CC(C)(C)NCC(O)CON=C1CCCc2ccccc21 (centres unmarked) [Example 18],ED50,action of isoprenaline; [3],0.05 µmol/kg
same,ED50,action of isoprenaline; [4],> 1 µmol/kg
same,ED50,action of isoprenaline; [5],> 1 µmol/kg
same,Kb,[1],0.631 nM
same,Kb,[2]; [6],70.8 nM
same,Kb,[2]; [7],28.8 nM
CC(C)(C)NCC(O)CON=Cc1ccccc1 (centres unmarked) [Example 19],Kb,[1],589 nM
same,Kb,[2]; [6],550 nM
same,Kb,[2]; [7],269 nM
CC(=NOCC(O)CNC(C)(C)C)c1ccccc1Cl (centres unmarked) [Example 20],ED50,action of isoprenaline; [3],0.07 µmol/kg
same,ED50,action of isoprenaline; [4],1 µmol/kg
same,ED50,action of isoprenaline; [5],0.7 µmol/kg
same,Kb,[1],13.8 nM
same,Kb,[2]; [6],4.57 nM
same,Kb,[2]; [7],4.27 nM
CC(=NOCC(O)CNC(C)(C)C)c1ccccc1 (centres unmarked) [Example 21],Kb,[1],24 nM
same,Kb,[2]; [6],200 nM
same,Kb,[2]; [7],117 nM
COc1ccc(C(C)=NOCC(O)CNC(C)(C)C)cc1 (centres unmarked) [Example 22],Kb,[1],1.82 nM
same,Kb,[2]; [6],14.1 nM
same,Kb,[2]; [7],11.5 nM
CC(=NOCC(O)CNC(C)(C)C)c1ccc([N+](=O)[O-])cc1 (centres unmarked) [Example 23],ED50,action of isoprenaline; [3],0.1 µmol/kg
same,ED50,action of isoprenaline; [4],3 µmol/kg
same,ED50,action of isoprenaline; [5],3 µmol/kg
same,Kb,[1],28.8 nM
same,Kb,[2]; [6],34.7 nM
same,Kb,[2]; [7],25.1 nM
CC(=NOCC(O)CNC(C)(C)C)c1ccccc1C (centres unmarked) [Example 24],Kb,[1],12.6 nM
same,Kb,[2]; [6],219 nM
same,Kb,[2]; [7],204 nM
CC(=NOCC(O)CNC(C)(C)C)c1ccc(Br)cc1 (centres unmarked) [Example 25],Kb,[1],3.09 nM
same,Kb,[2]; [6],26.3 nM
same,Kb,[2]; [7],12.6 nM
CC(=NOCC(O)CNC(C)(C)C)c1cccc(C)c1 (centres unmarked) [Example 26],Kb,[1],5.01 nM
same,Kb,[2]; [6],7.76 nM
same,Kb,[2]; [7],7.94 nM
CC(=NOCC(O)CNC(C)(C)C)c1ccc(N)cc1 (centres unmarked) [Example 27],Kb,[1],79.4 nM
same,Kb,[2]; [6],22.9 nM
same,Kb,[2]; [7],14.5 nM
CC(C)(C)NCC(O)CON=Cc1ccc2ccccc2c1 (centres unmarked) [Example 28],Kb,[1],42.7 nM
same,Kb,[2]; [6],35.5 nM
same,Kb,[2]; [7],32.4 nM
CC(=NOCC(O)CNC(C)(C)C)c1ccc(C#N)cc1 (centres unmarked) [Example 31],Kb,[1],102 nM
same,Kb,[2]; [6],120 nM
same,Kb,[2]; [7],123 nM
